Measurements: patent US20130017540A1, “IDENTIFICATION OF MUTATION TYPES ASSOCIATED WITH ACQUIRED RESISTANCE AND METHODS FOR USING SAME” (priority 2011, published 2013)

System: KCL-22 cells
Assay: Soft agar colony formation assay with imatinib
Format: cell-based
Details: 2.5 μM imatinib, one million KCL-22 cells per well, 3 weeks
Protocol: One million KCL-22 cells were seeded per well in triplicate and incubated for 3 weeks. Plates were then stained with 0.005% Crystal Violet for 1 hour, and colonies were scored by microscope.

Which results are given for `Cc1ccc(NC(=O)c2ccc(CN3CCN(C)CC3)cc2)cc1Nc1nccc(-c2cccnc2)n1` [imatinib]?
T315I mutation rate on soft agar, μ: 2.40 × 10^−4 T315I mutations incurred per BCR-ABL fusion gene; T315I mutation rate on soft agar, μ (listed as Imatinib): 2.40 × 10^−4 ± 2.89 × 10^−5 T315I mutations incurred per BCR-ABL fusion gene
